According to patent publication US20090176776A1, “SMALL MOLECULE INHIBITORS OF HIV-1 CAPSID ASSEMBLY” (UNIVERSITY OF ALABAMA AT BIRMINGHAM, priority 2005, published 2009):

Legend:
[1] = MTS score (Table 1; method not described); assay type: cell-based
[2] = biological target: C-terminal domain of the CA protein (Human immunodeficiency virus type 1 group M subtype B, UniProt P12493); details: 1 mM compound, 0.02 mM protein domain; peaks at 5.5 ppm and 8 ppm
Excerpt: (§1) The STD-NMR spectroscopy is an extremely powerful and sensitive technique to detect and identify the binding of low molecular weight (MW) ligands specific to a target protein of interest. […] This technique exploits the transfer of radio frequency saturation of the proton magnetization on the large protein to the low MW ligand during the brief period it resides within the binding pocket of the protein, before it is released into solution. It also exploits the large differences in the correlation times of the interacting molecules.

[3] = biological target: N-terminal domain of the CA protein (Human immunodeficiency virus type 1 group M subtype B, UniProt P12493); details: 1 mM compound; peaks at 5.5 ppm and 8 ppm
Excerpt: as §1

[4] = system: 293T cells; experiment: Toxicity in 293T cells; assay type: cell-based, human; set-up: unit not given beside the values
Protocol: Anti-HIV Assays (Single Round). The inhibitory effect of the compounds on virus production and infectivity were determined by measuring the level of p24 produced in the presence of various concentrations of compounds from HEK-293 cells transiently transfected with pNL43 and by titering the virus on TZM-b1 cells. Briefly, 2.5×10^5 HEK-293 cells/ml were transfected with pNL43 using FuGene 6. Four hours post transfection the cells were plated in 96-well plates containing 100 μl of various concentrations of compounds (0-75 μM or 0-300 μM for mock transfected cells) in triplicate. At 72-hours post transfection virus supernatant was collected and stored at −80° C. until analysis. The level of p24 produced at each compound concentration was determined relative to the level produced in the presence of the DMSO only controls using HIV-1 p24 enzyme-linked immunosorbent assay (ELISA) (Beckman-Coulter). To determine the infectivity of the virus produced TZM-b1 cells were plated at 1×10^5 cells/ml in 100 μL in 96-well plates overnight. The next day, the media was replaced with 75 μL DMEM supplemented with 1% FBS, 1× PSG and 40 μg/ml DEAE Dextran and 25 μL of viral supernatant from the HEK-293 cells was added to each well. Three hours later 100 μL of DMEM with 7% FBS was added to each well. Two days after infection the cells were lysed and the level of luciferase expression was determined using the Bright-Glo assay.
FIGS. 12-18 show the anti-HIV assays for the examples of chemical compounds used according to the invention. After in-vitro assay, the chemical compounds in FIGS. 12-18 were selected for screening for cell viability and toxicity. Jurkat cells assay was used as screening assay. In Jurkat cells assay, JLTRG-R5 cells were used as Indicator cells and MOLT4 cells as Producer cells of NL43 and BAL virus. 96 chemical compounds were plated at seven different concentration from 75 μM to 0 μM at three-fold serial dilutions in 384 well plate. After five days, GFP expression was read. Cell viability was monitored with Alamar Blue assay. Luc M7 assay was designed to measure inhibitory activity of the chemical compounds to viral replication. After infection of cells with YU2 virus, plate cells in 96-well plate in the presence of six concentration of compounds in DMSO. At day 6, the number of cells in wells were read with Cell Titer Glo kit or by counting the number of cells infected with Bright Glo kit. 293T cells assay was designed to determine the toxicity. 293T cells were transfected with NL43. After four hours, transfected cells were plated in 96-well plate in DMSO and 2 μM Indinavir. 72 hours later, viral supernatant was collected and plated on JC53BL. Luciferase expression was measure after two days and p24 analysis was conducted with 1:1000 and 1:2000 dilutions.

Cc1ncc(C[n+]2csc(CCOC(=O)C3C4CC5CC(C4)CC3C5)c2C)c(N)n1.Cl.[Cl-] (stereo not shown) [Compound 26]
MTS AVG 4 (No Effect) ([1]; average of the MTS scores at 10, 30 and 100 μM): 4.000
MTS 10 μM ([1]; score at nominal 10 μM, 4 = No Effect): 4
MTS 30 μM ([1]; score at nominal 30 μM, 4 = No Effect): 4
MTS 100 μM ([1]; score at nominal 100 μM, 4 = No Effect): 4
binding to the CTD domain (STD-NMR) [2]: binding of the chemical compound 26 to the CTD domain is clearly indicated
binding to the NTD domain (STD-NMR) [3]: binds to the NTD domain
TC50% [4]: 193
